Columns and labels:
[1] = target: T1, reuptake of dopamine (DA) in synaptosomes (Rattus norvegicus, UniProt P23977); experiment: Inhibition of 3H-DA reuptake in synaptosomes; type: biochemical; details: as described in WO 97/16451, read-out: DA-uptake IC50
T1 construct: in synaptosomes as described in WO 97/16451; from tissue
Procedure: (§1) A number of compounds were tested for their ability to inhibit the reuptake of the monoamine neurotransmitters dopamine (DA) noradrenaline (NA) and serotonine (5-HT) in synaptosomes as described in WO 97/16451.
(§2) The test values are given as IC50 (the concentration (μM) of the test substance which inhibits the specific binding of ^3H-DA, ^3H-NA, or ^3H-5-HT by 50%).

[2] = target: T2, reuptake of serotonine (5-HT) in synaptosomes (Rattus norvegicus, UniProt P31652); experiment: Inhibition of 3H-5-HT reuptake in synaptosomes; type: biochemical; details: as described in WO 97/16451, read-out: 5-HT-uptake IC50
T2 construct: in synaptosomes as described in WO 97/16451; from tissue
T2 sequence (P31652 whole entry): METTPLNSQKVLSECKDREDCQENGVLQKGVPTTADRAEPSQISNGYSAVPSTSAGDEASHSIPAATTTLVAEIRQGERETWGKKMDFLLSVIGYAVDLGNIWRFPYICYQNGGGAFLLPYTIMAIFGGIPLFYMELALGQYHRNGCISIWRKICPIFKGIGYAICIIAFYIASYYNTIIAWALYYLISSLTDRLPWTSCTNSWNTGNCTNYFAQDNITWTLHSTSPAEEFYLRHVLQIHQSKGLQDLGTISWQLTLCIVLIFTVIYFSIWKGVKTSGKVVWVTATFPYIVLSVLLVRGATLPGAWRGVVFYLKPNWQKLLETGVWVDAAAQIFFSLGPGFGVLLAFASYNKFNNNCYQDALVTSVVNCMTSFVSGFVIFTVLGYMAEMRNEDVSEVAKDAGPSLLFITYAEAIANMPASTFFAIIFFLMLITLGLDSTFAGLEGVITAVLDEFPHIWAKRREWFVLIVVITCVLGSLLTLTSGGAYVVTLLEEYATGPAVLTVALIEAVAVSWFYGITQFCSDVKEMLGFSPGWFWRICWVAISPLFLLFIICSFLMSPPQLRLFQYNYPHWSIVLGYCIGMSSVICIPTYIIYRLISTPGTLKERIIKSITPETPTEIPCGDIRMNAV
Procedure: as §1, §2

T1 sequence (P23977 whole entry): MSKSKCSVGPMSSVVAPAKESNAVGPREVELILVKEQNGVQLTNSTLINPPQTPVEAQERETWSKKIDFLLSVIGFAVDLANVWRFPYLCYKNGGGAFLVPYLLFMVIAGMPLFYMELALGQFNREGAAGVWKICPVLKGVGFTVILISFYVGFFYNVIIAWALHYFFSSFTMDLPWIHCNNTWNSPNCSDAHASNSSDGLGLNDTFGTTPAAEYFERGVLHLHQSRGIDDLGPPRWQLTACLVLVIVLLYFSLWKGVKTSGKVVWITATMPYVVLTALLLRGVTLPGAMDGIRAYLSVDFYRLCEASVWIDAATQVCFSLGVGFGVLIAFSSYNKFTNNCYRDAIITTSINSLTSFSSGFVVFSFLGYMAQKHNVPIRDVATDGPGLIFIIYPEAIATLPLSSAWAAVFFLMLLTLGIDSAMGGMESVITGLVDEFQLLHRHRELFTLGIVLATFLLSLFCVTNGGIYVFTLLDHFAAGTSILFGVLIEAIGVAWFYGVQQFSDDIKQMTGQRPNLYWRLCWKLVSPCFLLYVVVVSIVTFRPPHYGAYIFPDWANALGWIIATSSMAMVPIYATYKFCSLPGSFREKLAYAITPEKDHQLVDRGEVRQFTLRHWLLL

| SMILES | IC50 [1] | IC50 [2] | melting point |
| --- | --- | --- | --- |
| Clc1ccc(NC2CCC3(CCNCC3)CC2)cc1Cl [2nd last compound of method A, (3-Aza-spiro[5.5]undec-9-yl)-(3,4-dichloro-phenyl)-amine] | 490 nM | 2.3 nM | 128 to 132 °C |
| O=c1ccc2ccc(OC3CCC4(CCNCC4)CC3)cc2o1 [3rd compound of method A, 7-(3-Aza-spiro[5.5]undec-9-yloxy)-chromen-2-one] | 1200 nM | 2 nM | 126 to 128 °C |

Reference: patent US8049012B2, “3-aza-spiro[5.5]undecane derivatives and their use as monoamine neurotransmitter re-uptake inhibitors” (Neurosearch A/S, priority 2005, dated 2011)
